In one series the test system is vaccinia virus. Briefly: microbe, parasite or virus in culture. The class given is cell-based. The note with it: for IC50: Orthopoxvirus vaccinia, Vero, read-out: ID50 (inhibitory dose 50; 50% reduction in virus replication), vaccinia virus in Vero cells, called MIC50; for TI (therapeutic index, MTC/ID50) / Virus Rating (VR): Vero cells; for TI (therapeutic index, MTC/ID50): TI>50 indicates a useful compound; for Virus Rating (VR): VR >=1.0 significant, 0.5-0.9 marginal, <0.5 inactive, repeat lines are repeat tests.

The nature of series [1]: Cytotoxicity of test compound to Vero host cells (minimum toxic concentration). The following applies: monkey, MTC (minimum toxic concentration), footnote: lowest concentration giving 50% reduction in percent survival of viable host cells.

Values after ≈ are worked out from the molar mass of the structure shown. Values joined by “and” are separate entries in the source; they are usually repeats but may differ in a detail not shown here. Identical values can stand only once.

As to `Cc1cc(C)cc(COn2cnc3c(ncn3[C@@H]3O[C@H](CO)[C@@H](O)[C@H]3O)c2=N)c1.[O-][Cl+3]([O-])([O-])O` [Compound 2aa, 1-(3,5-Dimethylbenzyloxy)adenosine, perchloric acid salt], in the series with vaccinia virus, the IC50 worked out at 0.45 µg/mL; the “TI (therapeutic index, MTC/ID50)” value was 710 and > 1000. For the same compound, the MCC in series [1] was determined as 320 µg/mL.

As for `N=c1c2ncn([C@@H]3O[C@H](CO)[C@@H](O)[C@H]3O)c2ncn1OCc1cccc([N+](=O)[O-])c1.[O-][Cl+3]([O-])([O-])O` [Compound 2r, 1-(3-Nitrobenzyloxy)adenosine, perchloric acid salt], in the series on vaccinia virus, the IC50 is 10 µg/mL; the “TI (therapeutic index, MTC/ID50)” value was 32 and 30. Besides, in series [1], the MCC is over 320 µg/mL.

On to `CC(On1cnc2c(ncn2[C@@H]2O[C@H](CO)[C@@H](O)[C@H]2O)c1=N)c1ccccc1.[O-][Cl+3]([O-])([O-])O` (some centres unmarked) [Compound 2f, 1-(1-Phenylethyloxy)adenosine, perchloric acid salt], for which the IC50 in the series on vaccinia virus is under 0.32 µg/mL.

Take `N#Cc1ccccc1COn1cnc2c(ncn2[C@@H]2O[C@H](CO)[C@@H](O)[C@H]2O)c1=N.[O-][Cl+3]([O-])([O-])O` [Compound 2w, 1-(2-Cyanobenzyloxy)adenosine, perchloric acid salt]: the MCC in series [1] was over 320 µg/mL.

Consider `N=c1c2ncn([C@@H]3O[C@H](CO)[C@@H](O)[C@H]3O)c2ncn1OCc1ccc([N+](=O)[O-])cc1.[O-][Cl+3]([O-])([O-])O` [Compound 2s, 1-(4-Nitrobenzyloxy)adenosine, perchloric acid salt], for which, in the series on vaccinia virus, the IC50 was determined as 2.34 µg/mL; the “TI (therapeutic index, MTC/ID50)” value was 137 and 89; the “Virus Rating (VR)” value was over 1.7. For the same compound, in series [1], the MCC is over 320 µg/mL.

On to `N#Cc1ccc(COn2cnc3c(ncn3[C@@H]3O[C@H](CO)[C@@H](O)[C@H]3O)c2=N)cc1.[O-][Cl+3]([O-])([O-])O` [Compound 2v, 1-(4-Cyanobenzyloxy)adenosine, perchloric acid salt], for which, in the series with vaccinia virus, the IC50 was determined as 3.2 µg/mL; the “TI (therapeutic index, MTC/ID50)” value was 100 and 134. The compound further had an MCC in series [1] of over 320 µg/mL.

Turning to `Cc1ccc(COn2cnc3c(ncn3[C@@H]3O[C@H](CO)[C@@H](O)[C@H]3O)c2=N)cc1.[O-][Cl+3]([O-])([O-])O` [Compound 2b, 1-(4-Methylbenzyloxy)adenosine, perchloric acid salt], in the series with vaccinia virus, the IC50 worked out at 0.11 µg/mL; the “TI (therapeutic index, MTC/ID50)” value is reported as 917; the “Virus Rating (VR)” value was determined as 2.4. Moreover, the MCC in series [1] came to 100 µg/mL.

Take `N=c1c2ncn([C@@H]3O[C@H](CO)[C@@H](O)[C@H]3O)c2ncn1OCc1ccccc1F.[O-][Cl+3]([O-])([O-])O` [Compound 2g, 1-(2-Fluorobenzyloxy)adenosine, perchloric acid salt]: in the series with vaccinia virus, the IC50 was 4.97 µg/mL; the “TI (therapeutic index, MTC/ID50)” value was 64 and 34. Further, the MCC in series [1] was over 320 µg/mL.

As for `N=c1c2ncn([C@@H]3O[C@H](CO)[C@@H](O)[C@H]3O)c2ncn1OCc1cc(F)ccc1F.[O-][Cl+3]([O-])([O-])O` [Compound 2gg, 1-(2,5-Difluorobenzyloxy)adenosine, perchloric acid salt], in the series with vaccinia virus, the IC50 was 1.77 µg/mL; the “TI (therapeutic index, MTC/ID50)” value was 180 and 115. For the same compound, the MCC in series [1] is over 320 µg/mL.

Turning to `N=c1c2ncn([C@@H]3O[C@H](CO)[C@@H](O)[C@H]3O)c2ncn1OCc1cccc(F)c1.[O-][Cl+3]([O-])([O-])O` [Compound 2h, 1-(3-Fluorobenzyloxy)adenosine, perchloric acid salt], in the series on vaccinia virus, the IC50 is 0.98 µg/mL; the “TI (therapeutic index, MTC/ID50)” value is 325 and 285. The same compound came in with an MCC in series [1] of over 320 µg/mL.

Consider `COc1ccc([N+](=O)[O-])cc1COn1cnc2c(ncn2[C@@H]2O[C@H](CO)[C@@H](O)[C@H]2O)c1=N.[O-][Cl+3]([O-])([O-])O` [Compound 2t, 1-(2-Methoxy-5-nitrobenzyloxy)adenosine, perchloric acid salt], for which, in the series on vaccinia virus, the IC50 amounted to 2.01 µg/mL; the “TI (therapeutic index, MTC/ID50)” value is 160 and 87. Further, in series [1], the MCC is over 320 µg/mL.

Turning to `COc1ccccc1COn1cnc2c(ncn2[C@@H]2O[C@H](CO)[C@@H](O)[C@H]2O)c1=N.[O-][Cl+3]([O-])([O-])O` [Compound 2y, 1-(2-methoxybenzyloxy)adenosine, perchloric acid salt], in the series on vaccinia virus, the IC50 turned out to be 0.17 µg/mL; the “TI (therapeutic index, MTC/ID50)” value is 1935 and > 3020. Moreover, the MCC in series [1] was 320 µg/mL.

In the case of `COC(=O)c1cccc(COn2cnc3c(ncn3[C@@H]3O[C@H](CO)[C@@H](O)[C@H]3O)c2=N)c1.[O-][Cl+3]([O-])([O-])O` [Compound 2u, 1-(3-Methoxycarbonylbenzyloxy)adenosine, perchloric acid salt], in the series with vaccinia virus, the IC50 worked out at 1.55 µg/mL; the “TI (therapeutic index, MTC/ID50)” value is 207 and 139. Also, in series [1], the MCC was over 320 µg/mL.

Regarding `Cc1ccc(COn2cnc3c(ncn3[C@@H]3O[C@H](CO)[C@@H](O)[C@H]3O)c2=N)c(C)c1.[O-][Cl+3]([O-])([O-])O` [Compound 2cc, 1-(2,4-Dimethylbenzyloxy)adenosine, perchloric acid salt], in the series on vaccinia virus, the IC50 stood at 0.08 µg/mL; the “TI (therapeutic index, MTC/ID50)” value is 4110 and 3890; the “Virus Rating (VR)” value came out at 2.9. Moreover, the MCC in series [1] was determined as 320 µg/mL.

Regarding `Nc1c2ncn([C@H]3C[C@H](O)[C@@H](CO)O3)c2nc[n+]1[O-]` [Compound 1b, 2'-Deoxyadenosine-N^1-oxide], in the series with vaccinia virus, the IC50 was determined as 3.06 µg/mL (≈ 11.5 µM); the “TI (therapeutic index, MTC/ID50)” value came out at 104; the “Virus Rating (VR)” value is reported as over 1.7. The compound also showed an MCC in series [1] of over 320 µg/mL.

For `Cc1ccc(COn2cnc3c(ncn3[C@@H]3O[C@H](CO)[C@@H](O)[C@H]3O)c2=N)cc1C.[O-][Cl+3]([O-])([O-])O` [Compound 2z, 1-(3,4-Dimethylbenzyloxy)adenosine, perchloric acid salt], in the series with vaccinia virus, the IC50 turned out to be 0.32 µg/mL; the “TI (therapeutic index, MTC/ID50)” value was > 1000 and > 1760. Moreover, the MCC in series [1] amounted to 320 µg/mL.

`Nc1c2ncn([C@@H]3O[C@H](CO)[C@@H](O)[C@H]3O)c2nc[n+]1[O-]` [Compound 1a, Adenosine-N^1 -oxide]: in the series with vaccinia virus, the IC50 was determined as 0.32 µg/mL (≈ 1.13 µM); the “TI (therapeutic index, MTC/ID50)” value amounted to 312; the “Virus Rating (VR)” value was over 2.4. The MCC in series [1] came out at 100 µg/mL.

As for `Cc1ccccc1COn1cnc2c(ncn2[C@@H]2O[C@H](CO)[C@@H](O)[C@H]2O)c1=N.[O-][Cl+3]([O-])([O-])O` [Compound 2c, 1-(2-Methylbenzyloxy)adenosine, perchloric acid salt], in the series on vaccinia virus, the IC50 worked out at 0.32 µg/mL; the “TI (therapeutic index, MTC/ID50)” value turned out to be 1000; the “Virus Rating (VR)” value is over 2.4. This compound also registered an MCC in series [1] of over 320 µg/mL.

Take `N=c1c2ncn([C@@H]3O[C@H](CO)[C@@H](O)[C@H]3O)c2ncn1OCc1ccc(C(F)(F)F)cc1C(F)(F)F.[O-][Cl+3]([O-])([O-])O` [Compound 2n, 1-[2,4-Bis(trifluoromethyl)benzyloxy]adenosine, perchloric acid salt]: in the series on vaccinia virus, the IC50 was 1.45 µg/mL; the “TI (therapeutic index, MTC/ID50)” value was 221 and 181. Moreover, the MCC in series [1] is over 320 µg/mL.

Consider `N=c1c2ncn([C@@H]3O[C@H](CO)[C@@H](O)[C@H]3O)c2ncn1OCc1ccccc1.[O-][Cl+3]([O-])([O-])O` [Compound 2dd, 1-Benzyloxyadenosine, perchloric acid salt], for which, in the series with vaccinia virus, the IC50 came to 1.77 µg/mL; the “TI (therapeutic index, MTC/ID50)” value is 180; the “Virus Rating (VR)” value is given as over 2.0. The same compound displayed an MCC in series [1] of 320 µg/mL.

Consider `N=c1c2ncn([C@@H]3O[C@H](CO)[C@@H](O)[C@H]3O)c2ncn1OCc1cccc(Cl)c1.[O-][Cl+3]([O-])([O-])O` [Compound 2p, 1-(3-Chlorobenzyloxy)adenosine, perchloric acid salt], for which, in the series on vaccinia virus, the IC50 was 1.08 µg/mL; the “TI (therapeutic index, MTC/ID50)” value was 295 and 193. Moreover, in series [1], the MCC is over 320 µg/mL.

For the compound `N=c1c2ncn([C@@H]3O[C@H](CO)[C@@H](O)[C@H]3O)c2ncn1OCc1cc(C(F)(F)F)cc(C(F)(F)F)c1.[O-][Cl+3]([O-])([O-])O` [Compound 2m, 1-[3,5-Bis(trifluoromethyl)benzyloxy]adenosine, perchloric acid salt], in the series on vaccinia virus, the IC50 turned out to be 1.03 µg/mL; the “TI (therapeutic index, MTC/ID50)” value was 311 and 314. In series [1], the MCC is over 320 µg/mL.

With `COc1cccc(COn2cnc3c(ncn3[C@@H]3O[C@H](CO)[C@@H](O)[C@H]3O)c2=N)c1.[O-][Cl+3]([O-])([O-])O` [Compound 2e, 1-(3-Methoxybenzyloxy)adenosine, perchloric acid salt], in the series on vaccinia virus, the IC50 is 0.2 µg/mL; the “TI (therapeutic index, MTC/ID50)” value was 1609 and 1075. For the same compound, the MCC in series [1] is over 320 µg/mL.

As for `N#Cc1cccc(COn2cnc3c(ncn3[C@@H]3O[C@H](CO)[C@@H](O)[C@H]3O)c2=N)c1.[O-][Cl+3]([O-])([O-])O` [Compound 2x, 1-(3-Cyanobenzyloxy)adenosine, perchloric acid salt], in the series on vaccinia virus, the “TI (therapeutic index, MTC/ID50)” value was 182 and 134. For the same compound, the MCC in series [1] is over 320 µg/mL.

Regarding `CNc1c2ncn([C@@H]3O[C@H](CO)[C@@H](O)[C@H]3O)c2nc[n+]1[O-]` [Compound 1c, 6-Methylamino-9-β-D-ribofuranosylpurine-N^1-oxide], in the series with vaccinia virus, the IC50 was found to be 0.45 µg/mL (≈ 1.51 µM); the “TI (therapeutic index, MTC/ID50)” value amounted to 708; the “Virus Rating (VR)” value is given as over 2.4. This compound also returned an MCC in series [1] of 320 µg/mL.

For `Nc1ncnc2c1ncn2[C@@H]1O[C@H](CO)[C@@H](O)[C@@H]1O` [AraA, 9-β-D-arabinofuranosyladenine, reference compound], in the series with vaccinia virus, the IC50 amounted to 2 µg/mL (≈ 7.48 µM); the “TI (therapeutic index, MTC/ID50)” value is given as 13.3; the “Virus Rating (VR)” value came to 1.0. The MCC in series [1] was over 320 µg/mL.

Regarding `COc1ccc(COn2cnc3c(ncn3[C@@H]3O[C@H](CO)[C@@H](O)[C@H]3O)c2=N)cc1.[O-][Cl+3]([O-])([O-])O` [Compound 2d, 1-(4-Methoxybenzyloxy)adenosine, perchloric acid salt], the IC50 in the series with vaccinia virus amounted to 0.01 µg/mL.

(Values after US5102873A (priority 1989, dated 1992).)
